Laboratory results as given in patent publication US20140378422A1, “Combination of a RTK inhibitor with an anti-estrogen and use thereof for the treatment of cancer” (NOVARTIS AG, priority 2012, published 2014).

How the values were obtained:
metastatic breast cancer = assay: Clinical trial of Compound A as single agent in metastatic breast cancer patients; format: in vivo, human; details: preliminary results
CAMA-1 cell line = assay: CAMA-1 cell proliferation, CellTiter-Glo Luminescent Cell Viability Assay, dose matrix analysed with Chalice Analyzer; format: cell-based; details: standard media, 72 hrs, FIG. 2A
Description: Cell lines were grown at 37° C. and 5% CO2.
24 hours following plating, 20 ul of each compound dilution series was transferred to plates containing the cells, resulting in compound concentration ranges from 50 nM to 4000 nM by 3-fold dilutions and a final DMSO concentration of 0.16%. The total volume in each well was 100 ul and each dose matrix was tested in triplicate on separate assay plates.
The average and standard deviation percent inhibition relative to DMSO treated control for triplicate compound-treated wells at each concentration of compounds was determined and up-loaded to Chalice Analyzer Database.

Row | SMILES | unconfirmed partial responses (metastatic breast cancer; patients with FGF amplified disease (FGFR1 and/or FGFR2 and/or FGF3 amplification)) | patients with stable disease for greater than 24 weeks and/or a partial response that was not confirmed at four weeks (metastatic breast cancer; patients with FGF amplified disease) | patients with stable disease greater than 24 weeks (metastatic breast cancer; patients with FGF-pathway non-amplified disease) | concentrations with a modest effect on proliferation as a single agent (CAMA-1 cell line) [µM]
1 | CN1CCN(c2ccc3nc(-c4c(N)c5c(F)cccc5[nH]c4=O)[nH]c3c2)CC1 [Compound A, 4-amino-5-fluoro-3-[5-(4-methylpiperazin-1-yl)-1H-benzimidazol-2-yl]quinolin-2(1H)-one] | 3 | five | 3 | 
2 | C[C@]12CC[C@@H]3c4ccc(O)cc4C[C@@H](CCCCCCCCC[S+]([O-])CCCC(F)(F)C(F)(F)F)[C@H]3[C@@H]1CC[C@@H]2O (stereo partly drawn) [Fulvestrant, (7α,17β)-7-[9-[(4,4,5,5,5-Pentafluoropentyl)sulfinyl]nonyl]estra-1,3,5(10)-triene-3,17-diol] |  |  |  | ≥ 0.049
